Measurements: patent US10060892B2, “Tripodal nitrate receptor” (University of Oregon, priority 2013, dated 2018)

Assays:
[1] = 1H NMR titration with TBA nitrate in 10% DMSO-d6/CDCl3; assay type: binding; conditions: 10% DMSO-d6/CDCl3, from Ka values
Source text: (§1) To simplify the mode of binding in these receptors, as well as to lower the association constant of nitrate and bromide to a measurable amount, other solvent systems were investigated. Low solubility of the tripodal receptors limited the solvent possibilities. We also aimed to maintain competition between binding of the anion and solvent molecules to provide further evidence for the strong binding of nitrate in competitive solvents, a critical feature for applications in environmental monitoring. […] In addition, DMSO is a strong hydrogen bond acceptor, thus a lower association constant would be expected. Initial upfield shifts, followed by downfield shifts of the urea protons were observed upon the addition of TBANO3 1 mM solutions of 1 in 2% DMSO-d6/CDCl3 and 5% DMSO-d6/CDCl3. […]
(§2) Titrations in 10% DMSO-d6/CDCl3 were performed at a constant 1 mM concentration of 1. The change in chemical shift was monitored throughout the titration and fit to a 1:1 model using linear regression analysis. […] The binding constants of each anion investigated and the calculated total Δδ values based on the determined constant are presented in Table 2. […]
Similar to 1, host:guest complexes of 2 were investigated through 1H NMR spectroscopy titrations in 10% DMSO-d6/CDCl3. […] The urea protons (H^a and H^b), nitrophenyl protons (H^c and H^d), and core proton (H^core) were monitored throughout the titrations. […]

[2] = 1H NMR titration with TBA iodide in 10% DMSO-d6/CDCl3; assay type: binding; conditions: I^− (TBA salt), 10% DMSO-d6/CDCl3, 1 mM receptor, 1:1 model
Source text: as §1, with “DMSO-d6/CDCl3. The titration curves indicate a more complicated system than a 1:1 model; however, the data still could not be fit to a standard model.” for “DMSO-d6/CDCl3.”
as §2

[3] = 1H NMR titration with TBA bromide in acetone-d6; conditions: Br^−, acetone-d6, 0.5 mM receptor; lower limit inferred from sharp binding curve, no reproducible fit
Protocol: (§3) Interaction of 1 with anions in solution was investigated by 1H NMR spectroscopy. Initial titration experiments were performed at 0.5 mM of 1 in acetone-d6 due to its limited solubility in other solvents, despite the potential solvent competition as a hydrogen bond acceptor. […] Changes in chemical shifts of H^c and H^d were also observed, but to a lesser extent, with H^d moving upfield. Large downfield shifts of the urea protons indicate hydrogen bonds of the ureas to the anion as the main mode of binding. Change in chemical shift corresponding to the addition of NO3^− or Br^− begins to maximize at approximately 0.5 equiv. of guest, indicating a possible 2:1 binding model in acetone.

[4] = 1H NMR titration with TBA chloride in acetone-d6; assay type: binding; conditions: Cl^− (TBA salt), acetone-d6, 0.5 mM receptor
Protocol: as §3

[5] = 1H NMR titration with TBA bromide in 10% DMSO-d6/CDCl3; assay type: binding; conditions: Br^− (TBA salt), 10% DMSO-d6/CDCl3, 1 mM receptor, 1:1 model
Source text: as §1, with “DMSO-d6/CDCl3. The titration curves indicate a more complicated system than a 1:1 model; however, the data still could not be fit to a standard model.” for “DMSO-d6/CDCl3.”
as §2

Q: Which “selectivity for nitrate over chloride” value [1] does the source give for `CC(C)(C)c1ccc(NC(=O)Nc2ccc([N+](=O)[O-])cc2)c(C#Cc2cc(C#Cc3cc(C(C)(C)C)ccc3NC(=O)Nc3ccc([N+](=O)[O-])cc3)cc(C#Cc3cc(C(C)(C)C)ccc3NC(=O)Nc3ccc([N+](=O)[O-])cc3)c2)c1` [compound 2] here?
A: loss in selectivity for NO3^− over Cl^−

Q: Which results are given for `CC(C)(C)c1ccc(NC(=O)Nc2ccc([N+](=O)[O-])cc2)c(C#Cc2c(F)c(C#Cc3cc(C(C)(C)C)ccc3NC(=O)Nc3ccc([N+](=O)[O-])cc3)c(F)c(C#Cc3cc(C(C)(C)C)ccc3NC(=O)Nc3ccc([N+](=O)[O-])cc3)c2F)c1` [compound 1]?
A: Association constant Ka [2]: 755 (85) M^−1; Ka [3]: > 104 M⁻¹; 1:1 binding constant [4]: 8620 ± 1170 M⁻¹; Association constant Ka [5]: 8320 (876) M^−1; selectivity for nitrate over chloride [1]: moderate selectivity for nitrate
